In ChEMBL document CHEMBL1201862, “PubChem BioAssay data set” (2004):
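These data come from cells grown in 96-well plates and exposed to compound for 48 hours at five concentrations. GI50: concentration for 50% inhibition of growth.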 Active and inactive are the calls of the source. Cut-off read from the data, not from the text of the source: active = GI50 up to about 1.1 µM and inactive = higher.

What was measured:
Test in all cases: NCI tumour cell line growth inhibition, 48 h
CAKI-1 = test system: CAKI-1
CCRF-CEM = test system: CCRF-CEM
EKVX = test system: EKVX
HCT-116 = test system: HCT-116
HOP-62 = test system: HOP-62
KM12 = test system: KM12
LOX IMVI = test system: LOX IMVI
OVCAR-3 = test system: OVCAR-3
OVCAR-5 = test system: OVCAR-5
RXF 393 = test system: RXF 393
SF-268 = test system: SF-268
SK-MEL-28 = test system: SK-MEL-28
SNB-19 = test system: SNB-19
UACC-62 = test system: UACC-62
MDA-MB-435 = test system: MDA-MB-435
Malme-3M = test system: Malme-3M
SR = test system: SR
MDA-N = test system: MDA-N

SMILES	GI50 (CAKI-1)	GI50 (CCRF-CEM)	GI50 (EKVX)	GI50 (HCT-116)	GI50 (HOP-62)	GI50 (KM12)	GI50 (LOX IMVI)	GI50 (OVCAR-3)	GI50 (OVCAR-5)	GI50 (RXF 393)	GI50 (SF-268)	GI50 (SK-MEL-28)	GI50 (SNB-19)	GI50 (UACC-62)	GI50 (MDA-MB-435)	GI50 (Malme-3M)	GI50 (SR)	GI50 (MDA-N)
CN(C)CCNC(=O)c1cccc2nc3ccc4ccccc4c3nc12	0.0518 µM (active)	0.0673 µM (active)	0.126 µM (active)	0.0247 µM (active)	0.147 µM (active)	0.131 µM (active)	0.0726 µM (active)	0.169 µM (active)	0.21 µM (active)	0.0583 µM (active)	0.0592 µM (active)	0.29 µM (active)	0.132 µM (active)	0.126 µM (active)				
c1ccc(/N=c2/[nH]c3ccccc3s/c2=N/c2ccccc2)cc1	> 100 µM (inactive)	> 100 µM (inactive)	> 100 µM (inactive)	> 100 µM (inactive)	> 100 µM (inactive)	73.8 µM (inactive)	> 100 µM (inactive)		> 100 µM (inactive)	48.4 µM (inactive)	> 100 µM (inactive)	> 100 µM (inactive)	> 100 µM (inactive)	> 100 µM (inactive)	> 100 µM (inactive)	> 100 µM (inactive)	> 100 µM (inactive)	
COc1ccc(CC2NC(=O)/C=C/CC(C(C)C3OC3c3ccccc3)OC(=O)C(CC(C)C)OC(=O)C(C)CNC2=O)cc1Cl (stereo unspecified)	1.01e-05 µM (active)	< 1e-05 µM (active)		< 1e-05 µM (active)	1.76e-05 µM (active)	< 1e-05 µM (active)	< 1e-05 µM (active)	< 1e-05 µM (active)		< 1e-05 µM (active)	4.55e-05 µM (active)	2.43e-05 µM (active)		1.1e-05 µM (active)	< 1e-05 µM (active)		< 1e-05 µM (active)	< 1e-05 µM (active)
CCCCCCCCCc1c(Cl)nc(Cl)nc1Cl	4.78 µM (inactive)	2.17 µM (inactive)	22.7 µM (inactive)	14.5 µM (inactive)	22.5 µM (inactive)	32.7 µM (inactive)	1.95 µM (inactive)	17.9 µM (inactive)	21 µM (inactive)	14.4 µM (inactive)	18.7 µM (inactive)	19.4 µM (inactive)	16.2 µM (inactive)	20 µM (inactive)	13.5 µM (inactive)	10.8 µM (inactive)	2.84 µM (inactive)	14.7 µM (inactive)
CC#Cc1ccc(-c2ccccc2)s1	> 100 µM (inactive)	> 100 µM (inactive)	> 100 µM (inactive)	> 100 µM (inactive)		> 100 µM (inactive)	> 100 µM (inactive)	> 100 µM (inactive)	> 100 µM (inactive)	> 100 µM (inactive)	> 100 µM (inactive)	> 100 µM (inactive)	> 100 µM (inactive)	> 100 µM (inactive)	> 100 µM (inactive)		> 100 µM (inactive)	> 100 µM (inactive)
O=C(O)CCCNc1ncc2c(n1)-c1ccccc1OC2	> 100 µM (inactive)	> 100 µM (inactive)	> 100 µM (inactive)	> 100 µM (inactive)	> 100 µM (inactive)	> 100 µM (inactive)	> 100 µM (inactive)	> 100 µM (inactive)	> 100 µM (inactive)	> 100 µM (inactive)	> 100 µM (inactive)	> 100 µM (inactive)	> 100 µM (inactive)	> 100 µM (inactive)	> 100 µM (inactive)	> 100 µM (inactive)	> 100 µM (inactive)	> 100 µM (inactive)
